# According to patent EP4778931A1, “ULK1 INHIBITOR, PREPARATION METHOD THEREFOR AND USE THEREOF” (Dovetree Medicines Unus, Inc., priority 2023, dated 2025):
# Target: T1, ULK1 (Homo sapiens, UniProt O75385)
# T1 construct: purchased Promega V3521
# T1 sequence (O75385 1-1050): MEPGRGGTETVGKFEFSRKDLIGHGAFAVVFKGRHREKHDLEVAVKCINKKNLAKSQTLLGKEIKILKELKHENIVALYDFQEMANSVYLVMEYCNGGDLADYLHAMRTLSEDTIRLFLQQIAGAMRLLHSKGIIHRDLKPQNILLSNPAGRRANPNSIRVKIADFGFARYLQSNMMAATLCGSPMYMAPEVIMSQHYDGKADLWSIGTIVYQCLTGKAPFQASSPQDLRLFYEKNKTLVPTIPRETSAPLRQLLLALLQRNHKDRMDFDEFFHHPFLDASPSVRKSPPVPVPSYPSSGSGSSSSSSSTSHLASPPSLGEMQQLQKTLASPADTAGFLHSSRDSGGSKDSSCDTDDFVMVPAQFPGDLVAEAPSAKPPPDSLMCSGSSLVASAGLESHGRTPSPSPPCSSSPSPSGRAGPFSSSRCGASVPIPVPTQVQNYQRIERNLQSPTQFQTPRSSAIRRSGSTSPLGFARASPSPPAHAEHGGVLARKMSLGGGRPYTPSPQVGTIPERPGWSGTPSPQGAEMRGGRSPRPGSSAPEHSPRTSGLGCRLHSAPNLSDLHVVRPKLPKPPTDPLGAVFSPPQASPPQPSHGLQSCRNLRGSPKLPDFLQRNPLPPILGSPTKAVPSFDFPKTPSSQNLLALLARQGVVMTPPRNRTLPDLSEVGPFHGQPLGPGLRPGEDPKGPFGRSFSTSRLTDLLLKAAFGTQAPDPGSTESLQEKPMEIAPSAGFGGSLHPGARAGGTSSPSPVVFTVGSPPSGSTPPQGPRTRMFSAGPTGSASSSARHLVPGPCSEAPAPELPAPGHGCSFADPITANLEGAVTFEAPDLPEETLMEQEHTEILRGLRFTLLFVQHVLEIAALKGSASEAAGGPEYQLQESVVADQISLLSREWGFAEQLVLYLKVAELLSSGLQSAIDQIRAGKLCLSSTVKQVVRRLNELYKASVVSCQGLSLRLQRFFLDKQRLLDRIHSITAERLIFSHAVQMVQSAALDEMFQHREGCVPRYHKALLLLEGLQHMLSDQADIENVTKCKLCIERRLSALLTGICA
# Assay: Inhibition of ULK1 protein activity (phosphorylation function), ADP-Glo method
# Format: biochemical
# Details: ADP-Glo; ULK1 (Promega), ATP and MBP substrate, 60 min at room temperature; 10 concentrations, maximum 10 µM; read-out: ULK1 IC50
# Description: In this experiment, the inhibitory effect of a compound on the phosphorylation function of ULK1 was detected by ADP-Glo method. The inhibitory effect of the compound of the present disclosure on the ULK1 target was evaluated based on IC50.
# Compound formulation: Using an ECHO (Beckman, ECHO650), the compound was serially diluted 3-fold in DMSO in a 384-well plate (PE, 6007290). A total of 10 concentration points were set, with the maximum concentration of the compound being 10 µM, and 50 nL per well. Positive control wells and negative control wells were added with 50 nL DMSO, respectively.
# Reaction process: A 32 nM of ULK1 (Promega, V3521) solution was formulated, and 2.5 µL/well was transferred to the compound test wells and the negative control wells (NC). 2.5 µL/well of 1× Assay buffer was added to the positive control wells (PC). A mixed solution of 100 µM of ATP and 1.86 µM of MBP was formulated, and 2.5 µL/well was transferred to the reaction plate. After centrifugation, the reaction was initiated and incubated at room temperature for 60 min. After the reaction was completed, 5 µL/well of ADP-Glo Reagent (Promega, V9102) was added to the reaction plate. After centrifugation, the reaction was incubated at room temperature for 40 minutes. Finally, 10 µL/well of Kinase Detection Buffer was added, followed by centrifugation and incubation at room temperature for 30 min. The chemiluminescence value was read using Envision (PE, Envision2105).
# Assay buffer: a reaction buffer; and Kinase Detection buffer: a detection buffer, both were taken from the ADP-Glodetection kit, purchased from Promega, model V9102.
# The inhibition ratio of a compound on ULK1 activity was calculated using the following formula: [formula]
# The dose-effect curve was fitted using the log(inhibitor) vs. response -Variable slope of the analysis software GraphPad Prism 8, thereby affording the IC50 value of each compound for enzyme activity.
row,IC50 [µM],Compound
1,< 0.1,CN1CCC2(CCN(c3nc(Nc4ccc5c(c4)COCC4CN(C6COC6)CCN54)ncc3C(F)(F)F)C2)C1 (centres unmarked) [Compound 19]
2,< 0.1,CN1CCN2c3ccc(Nc4ncc(C(F)(F)F)c(O[C@H]5CC[C@@H](n6cccn6)CC5)n4)cc3COCC2C1 (some centres unmarked) [Compound 7]
3,< 0.1,CC(=O)N1CCN2c3ccc(Nc4ncc(C(F)(F)F)c(N5CCC6(CCN(C)C6)C5)n4)cc3COCC2C1 (centres unmarked) [Compound 18]
4,< 0.1,CN1CCN2c3ccc(Nc4ncc(C(F)(F)F)c(OCCCn5nccc5Cl)n4)cc3COCC2C1 (centres unmarked) [Compound 10]
5,0.1 to 1,CN1CCC2(CC1)CCN(c1nc(Nc3ccc4c(c3)COCC3CN(C)CCN43)ncc1C(F)(F)F)CC2 (centres unmarked) [Compound 13]
6,< 0.1,CN1CCN2c3ccc(Nc4ncc(C(F)(F)F)c(OCCCN5CCCCC5=O)n4)cc3N(C)C(=O)C2C1 (centres unmarked) [Compound 14]
7,< 0.1,CN1CCN2c3ccc(Nc4ncc(C(F)(F)F)c(OCCCN5CCCCC5=O)n4)cc3OCCC2C1 (centres unmarked) [Compound 15]
8,< 0.1,CN1CCN2c3ccc(Nc4ncc(C(F)(F)F)c(OCCCN5CCCOC5=O)n4)cc3COCC2C1 (centres unmarked) [Compound 16]
